The structures appear in SMILES notation. “And” between values parts separate entries of the source, which are not always exact repeats. Equal entries are not always repeated. Inconclusive results and toxic doses are left out.

Our source for the T/C values is PubChem BioAssay AID328 (DTP/NCI, 2004).

In this experiment the test system is BDF1 mice, P388 leukemia ip, median survival T/C. Nature of the experiment: NCI In Vivo Anticancer Drug Screen. Data for tumor model P388 Leukemia (intraperitoneal) in B6D2F1 (BDF1) mice. Particulars: endpoint: median survival time, higher = longer survival. The method, boiled down: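 Read-out is survival of treated animals expressed relative to the vehicle group, as a T/C ratio.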

Setting [1] is: dose: 400.0 mg/kg/injection, schedule: Q04DX003 (ip), vehicle: saline with Tween-80.
[2] abbreviates: dose: 50.0 mg/kg/injection, schedule: Q01DX009 (ip), vehicle: saline with Tween-80.
Setting [3] is: dose: 100.0 mg/kg/injection, schedule: Q01DX009 (ip), vehicle: saline with Tween-80.
The mark [4] stands for this setting: dose: 100.0 mg/kg/injection, schedule: Q01DX009 (ip), vehicle: Klucel (hydroxypropylcellulose) (HPC).
Where [5] appears, read: dose: 200.0 mg/kg/injection, schedule: Q01DX009 (ip), vehicle: Klucel (hydroxypropylcellulose) (HPC).
The mark [6] stands for this setting: dose: 100.0 mg/kg/injection, schedule: Q04DX003 (ip), vehicle: saline with Tween-80.
[7] abbreviates: dose: 200.0 mg/kg/injection, schedule: Q04DX003 (ip), vehicle: saline with Tween-80.
[8] abbreviates: dose: 200.0 mg/kg/injection, schedule: Q01DX009 (ip), vehicle: saline with Tween-80.
Where [9] appears, read: dose: 400.0 mg/kg/injection, schedule: Q01DX009 (ip), vehicle: saline with Tween-80.
Where [10] appears, read: dose: 50.0 mg/kg/injection, schedule: Q04DX003 (ip), vehicle: saline with Tween-80.

Regarding `N=c1ccn2c(n1)OC1C(OP(=O)(O)O)C(CO)OC12` (configuration not stated), the T/C runs as follows: (dose: 52.0 mg/kg/injection, schedule: Q04DX003 (ip), vehicle: saline) 109 % of control; (dose: 118.0 mg/kg/injection, schedule: Q04DX003 (ip), vehicle: saline) 159 % of control; (dose: 177.0 mg/kg/injection, schedule: Q04DX003 (ip), vehicle: saline) 172 % of control and 185 % of control; (dose: 266.0 mg/kg/injection, schedule: Q04DX003 (ip), vehicle: saline with Tween-80) 172 % of control; (dose: 266.0 mg/kg/injection, schedule: Q04DX003 (ip), vehicle: saline) 205 % of control; under setting [1], 181 % of control. The T/C runs as follows: (dose: 400.0 mg/kg/injection, schedule: Q04DX003 (ip), vehicle: saline) 200 % of control; (dose: 600.0 mg/kg/injection, schedule: Q04DX003 (ip), vehicle: saline with Tween-80) 200 % of control; (dose: 600.0 mg/kg/injection, schedule: Q04DX003 (ip), vehicle: saline) 230 % of control.

For `COc1ccc(S(=O)(=O)c2ccccc2)c2nonc12`, the T/C (dose: 25.0 mg/kg/injection, schedule: Q01DX009 (ip), vehicle: saline with Tween-80) is 90 % of control; the T/C under setting [2] is 86 % of control; the T/C under setting [3] was 92 % of control.

In the case of `Nc1ncc([N+](=O)[O-])cn1`, the T/C under setting [4] is 95 % of control and the T/C under setting [5] is 90 % of control.

As to `COc1cc(N)c2ncsc2c1[N+](=O)[O-]`, the T/C reads like this: (dose: 50.0 mg/kg/injection, schedule: Q01DX009 (ip), vehicle: Klucel (hydroxypropylcellulose) (HPC)) 89 % of control; under setting [4], 105 % of control; under setting [5], 106 % of control.

Regarding `CC/C(=C(\CC)c1ccc(OC)cc1)c1ccc(O)cc1`, the T/C reads like this: (dose: 100.0 mg/kg/injection, schedule: Q01DX009 (ip), vehicle: saline sonified) 105 % of control; under setting [6], 109 % of control; (dose: 200.0 mg/kg/injection, schedule: Q01DX009 (ip), vehicle: saline sonified) 110 % of control; under setting [7], 104 % of control; (dose: 400.0 mg/kg/injection, schedule: Q01DX009 (ip), vehicle: saline sonified) 115 % of control; under setting [1], 95 % of control.

Regarding `CC1(C(=O)O)CCC(C(=O)Nc2ccccc2)C1(C)C` (configuration not stated), the T/C under setting [3] is 92 % of control; the T/C under setting [6] was 100 % of control; the T/C under setting [8] was 92 % of control; the T/C under setting [7] was 90 % of control; the T/C under setting [9] is 92 % of control; the T/C under setting [1] is 104 % of control.

As for `CCOC(=O)c1ccc(NS(=O)c2ccccc2)cc1` (configuration not stated), the T/C under setting [2] is 100 % of control, the T/C under setting [3] is 93 % of control and the T/C under setting [8] was 111 % of control.

For `C(=NCCN=Cc1c[nH]c2ccccc12)c1c[nH]c2ccccc12`, the T/C is 111 % of control under setting [10]; 88 % of control under setting [3]; 103 % of control under setting [6]; 92 % of control under setting [8]; 100 % of control under setting [7]; 103 % of control under setting [9].

For `CC1(C)O[Te]2(OC1(C)C)OC(C)(C)C(C)(C)O2`, the T/C was 104 % of control (dose: 12.5 mg/kg/injection, schedule: Q01DX001 (ip), vehicle: saline with Tween-80) and 113 % of control (dose: 25.0 mg/kg/injection, schedule: Q01DX001 (ip), vehicle: saline with Tween-80).

For the compound `NOCc1cccc(C(F)(F)F)c1`, the T/C was 91 % of control (dose: 75.0 mg/kg/injection, schedule: Q04DX003 (ip), vehicle: saline); 91 % of control (dose: 150.0 mg/kg/injection, schedule: Q04DX003 (ip), vehicle: saline); 91 % of control (dose: 300.0 mg/kg/injection, schedule: Q04DX003 (ip), vehicle: saline).

For `CCCC1(C)NC(=O)NC1=O` (configuration not stated), the T/C by setting is: under setting [6], 104 % of control; under setting [7], 113 % of control; under setting [1], 90 % of control.

Turning to `Cc1ncc(CO)c(C)c1O`, the T/C was 100 % of control (dose: 12.5 mg/kg/injection, schedule: Q01DX010 (ip), vehicle: saline); 100 % of control (dose: 25.0 mg/kg/injection, schedule: Q01DX010 (ip), vehicle: saline); 100 % of control (dose: 50.0 mg/kg/injection, schedule: Q01DX010 (ip), vehicle: saline); 100 % of control (dose: 100.0 mg/kg/injection, schedule: Q01DX010 (ip), vehicle: saline).

Take `CCC(C)C(NC(=O)C(Cc1ccc(O)cc1)NC(=O)C(N)C(C)C)C(=O)NC(Cc1cnc[nH]1)C(=O)N1CCCC1C(=O)NC(Cc1ccccc1)C(=O)OC` (configuration not stated): the T/C reads like this: (dose: 50.0 mg/kg/injection, schedule: Q01DX005 (ip), vehicle: saline with Tween-80) 101 % of control; (dose: 100.0 mg/kg/injection, schedule: Q01DX005 (ip), vehicle: saline with Tween-80) 90 % of control; (dose: 200.0 mg/kg/injection, schedule: Q01DX005 (ip), vehicle: saline with Tween-80) 90 % of control.

Turning to `CO[C@H]1C[C@](C)(O)Cc2cc3c(c(O)c21)C(=O)c1c(O)cc2c(c1C3=O)O[C@@H]1O[C@@]2(C)[C@H](O)[C@@H](N(C)C)[C@@H]1O`, the T/C by setting is: (dose: 18.0 mg/kg/injection, schedule: Q04DX003 (ip), vehicle: lactate) 228 % of control; (dose: 30.0 mg/kg/injection, schedule: Q04DX003 (ip), vehicle: lactate) 271 % of control; (dose: 50.0 mg/kg/injection, schedule: Q04DX003 (ip), vehicle: lactate) 107 % of control.

As to `CCN(C(C)(C)C(SSSC(c1ccc(Cl)cc1)C(C)(C)N(CC)S(C)(=O)=O)c1ccc(Cl)cc1)S(C)(=O)=O` (configuration not stated), the T/C under setting [10] was 109 % of control, the T/C under setting [6] was 122 % of control and the T/C under setting [7] was 122 % of control.

Regarding `CC(Br)C(=O)NC(Cc1ccccc1)C(=O)O` (configuration not stated), the T/C is 95 % of control (dose: 100.0 mg/kg/injection, schedule: Q01DX009 (ip), vehicle: saline); 100 % of control (dose: 100.0 mg/kg/injection, schedule: Q04DX003 (ip), vehicle: alcohol); 118 % of control under setting [6]; 100 % of control (dose: 200.0 mg/kg/injection, schedule: Q01DX009 (ip), vehicle: saline); 104 % of control (dose: 200.0 mg/kg/injection, schedule: Q04DX003 (ip), vehicle: alcohol); 100 % of control under setting [7]. Besides, the T/C reads like this: (dose: 400.0 mg/kg/injection, schedule: Q01DX009 (ip), vehicle: saline) 104 % of control; (dose: 400.0 mg/kg/injection, schedule: Q04DX003 (ip), vehicle: alcohol) 109 % of control; under setting [1], 109 % of control.

As for `O=C1Nc2ccc(Br)cc2C1=Nc1ccc2c(c1)OCO2`, the T/C under setting [2] was 113 % of control, the T/C under setting [3] was 111 % of control, the T/C under setting [8] is 108 % of control and the T/C under setting [9] was 111 % of control.

Consider `COc1ccc2c(c[n+](C)c3c4cc5c(cc4ccc23)OCO5)c1OC`, for which the T/C by setting is: (dose: 5.0 mg/kg/injection, schedule: Q01DX010 (ip), vehicle: saline) 90 % of control; (dose: 10.0 mg/kg/injection, schedule: Q01DX010 (ip), vehicle: saline) 100 % of control.

Regarding `CC1(C)N=C(N)N=C(N)N1c1ccc(CCc2ccc(S(=O)(=O)F)cc2)c(Cl)c1`, the T/C is, setting by setting: (dose: 33.0 mg/kg/injection, schedule: Q04DX003 (ip), vehicle: saline sonified) 122 % of control; under setting [3], 159 % of control.

Take `Nc1cc(/C=C/c2ccc([N+](=O)[O-])cc2)nc2ccccc12`: the T/C reads like this: (dose: 25.0 mg/kg/injection, schedule: Q04DX002 (ip), vehicle: saline with Tween-80) 101 % of control; under setting [2], 88 % of control; (dose: 50.0 mg/kg/injection, schedule: Q04DX002 (ip), vehicle: saline with Tween-80) 117 % of control; under setting [3], 94 % of control; under setting [8], 94 % of control; (dose: 200.0 mg/kg/injection, schedule: Q04DX002 (ip), vehicle: saline with Tween-80) 88 % of control.
